What was measured:
[1] = tested on: human acute monocytic leukaemia cell line (THP-1); test: Monocyte mobilization effect: THP-1 cell migration rate in Transwell; format: cell-based; details: 3 hr; for cell migration rate (monocyte mobilization effect) compared to the control: 10 nM, FIG. 1, Ret-LysoPC of Example 1-2, Ret-PC of Comparative Example 1
Experimental: A cell suspension of human acute monocytic leukaemia cell line (hereinafter to be referred to as “THP-1”) (manufactured by ATCC) was centrifuged, the supernatant was discarded, 0.1% bovine serum albumin (fatty acid-free, manufactured by SIGMA ALDRICH)-containing RPMI-1640 (manufactured by Life Technologies) was added to give a dispersion. It was centrifuged again, the supernatant was discarded to give cell pellets. 0.1% Bovine serum albumin-containing RPMI-1640 was added to adjust the cell density to 1×10^6 cells/ml. The cell suspension (100 μl/well) was added to Transwell (manufactured by Corning Incorporated, φ6.5 mm, pore size φ8.0 μm). The cells were incubated at 37° C., 5% CO2 for 30 min, and a measurement solution (all-trans retinoic acid (manufactured by Tokyo Chemical Industry Co., Ltd.) (hereinafter to be referred to as “RA”), Ret-PC of Comparative Example 1 or Ret-LysoPC of Example 1-2 dissolved in 0.1% bovine serum albumin-containing RPMI-1640 to 10 nM, and 0.1% bovine serum albumin-containing RPMI-1640 alone) was placed in the lower part of the multiple well plate (600 μl/well). After incubation at 37° C., 5% CO2 for 3 hr, the cell suspension in the multiple well plate was collected, cell density was measured by a hemacytometer and the cell migration rate was determined. The cell migration rate was defined as follows. cell migration rate (%)=(number of cells in multiple well plate)/(number of cells added to Transwell)
A cell suspension of THP-1 was centrifuged, the supernatant was discarded, 0.1% bovine serum-containing RPMI-1640 was added to give a dispersion. It was centrifuged again, the supernatant was discarded to give cell pellets. 0.1% Bovine serum albumin-containing RPMI-1640 was added to adjust the cell density to 1×10^6 cells/ml. The cell suspension (100 μl/well) was added to Transwell (manufactured by Corning Incorporated, φ6.5 mm, pore size φ8.0 μm). The cells were incubated at 37° C., 5% CO2 for 30 min, and a measurement solution (Ret-LysoPC of Examples 1-1 and 1-2 dissolved in 0.1% bovine serum albumin-containing RPMI-1640 to 10 nM, and 0.1% bovine serum albumin-containing RPMI-1640 alone) was placed in the lower part of the multiple well plate (600 μl/well). After incubation at 37° C., 5% CO2 for 3 hr, the cell suspension in the multiple well plate was collected, cell density was measured by a hemacytometer and the cell migration rate was determined.
Using human acute monocytic leukaemia cell line (THP-1) (manufactured by ATCC), a monocyte migration effect of each sample was evaluated. A cell suspension of THP-1 was centrifuged, the supernatant was discarded, 0.1% bovine serum-containing RPMI-1640 was added to give a dispersion. It was centrifuged again, the supernatant was discarded to give cell pellets. 0.1% Bovine serum albumin-containing RPMI-1640 was added to adjust the cell density to 1×10^6 cells/ml. The cell suspension (100 μl/well) was added to Transwell (manufactured by Corning Incorporated, φ6.5 mm, pore size φ8.0 μm). The cells were incubated at 37° C., 5% CO2 for 30 min, and a measurement solution (C18:0-LysoPC (COATSOME MC-80H; manufactured by NOF CORPORATION), Ret-LysoPC of Example 2 or S1P (manufactured by Toronto Research Chemicals) dissolved in 0.1% bovine serum albumin-containing RPMI-1640, and 0.1% bovine serum albumin-containing RPMI-1640 alone) was placed in the lower part of the multiple well plate ([…]). After incubation at 37° C., 5% CO2 for 3 hr, the cell suspension in the multiple well plate was collected, cell density was measured by a hemacytometer and the cell migration rate was determined.

[2] = tested on: monocytes and macrophages; details: background art, non-patent documents 2, 3; cited from earlier work
[3] = tested on: Human bone marrow-derived mesenchymal stem cell line (UE7T-13); test: Mesenchymal stem cell mobilization effect: UE7T-13 cell migration ratio in Transwell; format: cell-based; details: 4 hr
Experimental: Human bone marrow-derived mesenchymal stem cell line (UE7T-13) (manufactured by National Institute of Biomedical Innovation JCRB Cell Bank) was previously cultured in serum-free DMEM (manufactured by SIGMA ALDRICH) for 24 hr, and 0.25% trypsin/1 mM EDTA solution (manufactured by SIGMA ALDRICH) was added to give a dispersion. 10% Serum-containing DMEM (Powered by 10 medium; manufactured by GlycoTechnica Ltd.) was added, the cell suspension was centrifuged, the supernatant was discarded, 0.1% bovine serum albumin (fatty acid-free, manufactured by SIGMA ALDRICH)-containing DMEM (manufactured by SIGMA ALDRICH) was added to give a dispersion. It was centrifuged again, the supernatant was discarded to give cell pellets. 0.1% Bovine serum albumin-containing DMEM was added to adjust the cell density to 4×10^5 cells/mi. The cell suspension (100 μl/well) was added to Transwell (manufactured by Corning Incorporated, φ6.5 mm, pore size φ8.0 μm). The cells were incubated at 37° C., 5% CO2 for 30 min, and a measurement solution (Ret-LysoPC of Example 1-2 dissolved in 0.1% bovine serum albumin-containing DMEM to 10 nM, or 0.1% bovine serum albumin-containing DMEM alone) was placed in the lower part of the multiple well plate (600 μl/well). After incubation at 37° C., 5% CO2 for 4 hr, the supernatant in the insert was removed. The cells on the upper membrane side were removed, the cells on the lower membrane side were immobilized with 4% para-formaldehyde solution, and stained with crystalviolet solution. They were washed with water, dried, and the number of cells per one field was measured by microscopic observation. The cell migration ratio was defined as follows. cell migration ratio=(number of cell per one membrane field when each measurement solution was used)/(number of cells per one membrane field of control)
The control refers to 0.1% bovine serum albumin-containing DMEM with no addition.
Human bone marrow-derived mesenchymal stem cell line (UE7T-13) (manufactured by National Institute of Biomedical Innovation JCRB Cell Bank) was previously cultured in serum-free DMEM (manufactured by SIGMA ALDRICH) for 24 hr, and 0.25% trypsin/1 mM EDTA solution (manufactured by SIGMA ALDRICH) was added to give a dispersion. 10% Serum-containing DMEM (Powered by 10 medium; manufactured by GlycoTechnica Ltd.) was added, the cell suspension was centrifuged, the supernatant was discarded, 0.1% bovine serum albumin (fatty acid-free, manufactured by SIGMA ALDRICH)-containing DMEM (manufactured by SIGMA ALDRICH) was added to give a dispersion. It was centrifuged again, the supernatant was discarded to give cell pellets. […] They were washed with water, dried, and the number of cells per one field was measured by microscopic observation. […]

[4] = 100 nM, FIG. 6, FIG. 7, Ret-LysoPC of Example 2

## CCCCCCCCCCCCCCCCCC(=O)OC[C@@H](O)COP(=O)([O-])OCC[N+](C)(C)C [C18:0-LysoPC, 1-stearoyl-lysophosphocholine]
[1]; [4]
  monocyte mobilization effect (cell migration rate): absent
[2]
  concentration at which a monocyte/macrophage mobilizing effect is exhibited: ≥ 10 µM

## CCCCCCCCCCCCC/C=C/[C@@H](O)[C@@H](N)COP(=O)(O)O [Example S1P, sphingosine-1-phosphoric acid]
[1]; 1 nM, FIG. 7
  monocyte mobilization effect (cell migration rate): did not show a significant (p<0.05) monocyte mobilization effect
[1]; [4]
  monocyte mobilization effect (cell migration rate): did not show a significant (p<0.05) monocyte mobilization effect
[3]; 10 nM, FIG. 8
  mesenchymal stem cell mobilization effect (cell migration ratio): did not show a significant (p<0.05) mesenchymal stem cell mobilization effect
[3]; 100 nM, FIG. 8
  mesenchymal stem cell mobilization effect (cell migration ratio): did not show a significant (p<0.05) mesenchymal stem cell mobilization effect
[2]
  concentration at which mobilization of monocytes and macrophages is suppressed (acting on receptor 2): ≥ 100 nM
  effective concentration range for mobilization of monocytes and macrophages: around 10 nM

## CC1=C(/C=C/C(C)=C/C=C/C(C)=C/C(=O)O)C(C)(C)CCC1 [RA, all-trans retinoic acid]
[1]
  cell migration rate (monocyte mobilization effect) compared to the control: did not show cell migration

## CC1=C(/C=C/C(C)=C/C=C/C(C)=C/C(=O)OCC(O)COP(=O)([O-])OCC[N+](C)(C)C)C(C)(C)CCC1 (stereo not drawn) [Ret-LysoPC, 1-retinoyl-sn-glycero-3-phosphocholine]
[1]
  cell migration rate (monocyte mobilization effect) compared to the control: significant (P<0.05) cell migration
[1]; [4]
  monocyte mobilization effect (cell migration rate): present
[1]; any of 1-100 nM, FIG. 7, Ret-LysoPC of Example 2
  monocyte mobilization effect (cell migration rate): showed a significant monocyte mobilization effect
[3]; 10 nM, FIG. 3, Ret-LysoPC of Example 1-2
  cell migration ratio (mesenchymal stem cell mobilization effect) compared to the control: significant cell migration
[3]; any of 1-100 nM, FIG. 8, Ret-LysoPC of Example 1-2
  mesenchymal stem cell mobilization effect (cell migration ratio): showed a significant mesenchymal stem cell mobilization effect

## CC1=C(/C=C/C(C)=C/C=C/C(C)=C/C(=O)OCC(COP(=O)([O-])OCC[N+](C)(C)C)OC(=O)/C=C(C)/C=C/C=C(C)/C=C/C2=C(C)CCCC2(C)C)C(C)(C)CCC1 (stereo not drawn) [Ret-PC, diretinoyl phosphocholine]
[1]
  cell migration rate (monocyte mobilization effect) compared to the control: did not show cell migration
